Measurements from patent US11154529B2, “Phosphaplatin liquid formulations” (Phosplatin Therapeutics Inc., priority 2016, dated 2021).
Values joined by “and” are separate entries in the source; they are usually repeats but may differ in a detail not shown here. Identical values can stand only once.

Assay: Ready-to-use formulation stability at 25° C./60% RH, 5 mg/mL (R,R)-pyrodach-2 in 10 mM Potassium Phosphate Buffer at pH 7.4, 10 mL vials
Type: physicochemical
Experimental: A scalable and commercially viable process for the manufacture of a ready-to-use formulation of (R,R)-pyrodach-2 in 10 mM buffer adjusted to a pH of 7.0-7.5 comprises the steps of: a) preparing a 10 mM aqueous solution of buffer; b) adding sufficient hydroxide base to effect neutralization of the added (R,R)-pyrodach-2 to reach a pH of about 7; c) adding (R,R)-pyrodach-2 and allowing it to dissolve; d) if necessary adding additional hydroxide to adjust the pH into a range of about 7.0-7.5; and e) filtering the solution under sterile conditions, filling the solution into glass vials, and covering it with a stopper and/or a cap. Stability data on two large batches of 5 mg/mL (R,R)-pyrodach-2 in 10 mM potassium phosphate buffer were generated. One such batch at pH=7.2 was evaluated at both 25° C./60% RH and refrigerated (2-8° C.) conditions, with data summarized in Table 4 and Table 5, respectively. […] Similar observations have been made for the ready-to-use liquid formulation at pH7.4, as illustrated in Table 6 and Table 7.
• Transfer 4564.6 mg±0.5 mg of potassium phosphate dibasic, trihydrate to a 2-L volumetric flask. • Fill flask to approximately 75% volume with water, swirl as needed to dissolve all solids. • Volumetrically transfer 32.0 mL of 1N KOH to flask. • Dilute flask to volume with water and mix well. • Record pH of final solution. This is the diluent. • Transfer 7653.1 mg±0.5 mg of (R,R)-pyrodach-2 to a compounding vessel. • Transfer 1500 mL of the diluent to the vessel and stir to dissolve solids. • Record pH of final solution. • Pass entire solution through a 0.22 μm sterile filter membrane into a sterile collection vessel. • Calculate (R,R)-pyrodach-2 solution concentration
To a […] glass beaker equipped with mechanical mixer was add 24645.5 g of sterile water for injection. With agitation 47.03 gm of dibasic potassium phosphate USP was added and the solids allowed to dissolve. To the stirred solution was added 253.8 gm of 1.00 N potassium hydroxide. Sterile water for injection USP (900.0 gm) was used as a rinse to facilitate both additions. With vigorous agitation, (R,R)-pyrodach-2 (201.87 gm) was slowly added and agitation continued until all of the solids dissolved. Sterile water for injection USP (900.0 gm) was used as a rinse to facilitate the addition. The pH was determined to be 6.7. A total of 85 mL of 1.00 N potassium hydroxide was added in 5.0 mL aliquots to adjust the pH to 7.3. The solution was sterile filtered through 0.22μ Millipore Millipack filter and aseptically filled, 10 ml top a vial in 10 mL in 10 cc Wheaton clear molded vails, stoppered with a 20 mm stopper and crimp seal capped.

O=P1(O)OP(=O)(O)[O][Pt]2([NH][C@@H]3CCCC[C@H]3[NH]2)[O]1 (stereo partly drawn) [(R,R)-pyrodach-2, (R,R)-trans-1,2-cyclohexanediamine-(dihydrogenpyrophosphato)platinum(II)]
(DACH) Pt-monoaquo (~RRT 0.7) (15 Month): 0.92%
Assay (Potency) (15 Month): 96.8%
PT-112 Dimer (~RRT 4.0) (15 Month): 0.28%
RRT 0.42 (15 Month): 0.12%
RRT 0.46 (15 Month): 0.08%
RRT 0.50 (15 Month): 0.44%
RRT 0.56 (15 Month): 0.20%
RRT 0.68 (15 Month): 0.11%
RRT 0.86 (15 Month): 0.05%
RRT 3.1-3.2 (15 Month): 0.78%
RRT 3.58 (15 Month): 0.78%
RRT 4.95 (15 Month): 0.51%
Total Related Substances (15 Month): 4%
pH (15 Month): 7.5
(DACH) Pt-diaquo (~RRT 0.3) (18 Month): 0.12%
(DACH) Pt-monoaquo (~RRT 0.7) (18 Month): 0.78%
Assay (Potency) (18 Month): 96.9%
PT-112 Dimer (~RRT 4.0) (18 Month): 0.29%
RRT 0.42 (18 Month): 0.15%
RRT 0.46 (18 Month): 0.13%
RRT 0.50 (18 Month): 0.59%
RRT 0.56 (18 Month): 0.09%
RRT 0.68 (18 Month): 0.08%
RRT 0.86 (18 Month): 0.05%
RRT 3.1-3.2 (18 Month): 0.73%
RRT 3.44 (18 Month): 0.12%
RRT 3.58 (18 Month): 1.06%
RRT 4.95 (18 Month): 0.69%
Total Related Substances (18 Month): 5%
pH (18 Month): 7.5
(DACH) Pt-diaquo (~RRT 0.3) (21 Month): 0.11%
(DACH) Pt-monoaquo (~RRT 0.7) (21 Month): 1.13%
Assay (Potency) (21 Month): 96.3%
PT-112 Dimer (~RRT 4.0) (21 Month): 0.28%
RRT 0.42 (21 Month): 0.16%
RRT 0.46 (21 Month): 0.12%
RRT 0.50 (21 Month): 0.60%
RRT 0.56 (21 Month): 0.17%
RRT 0.68 (21 Month): 0.12%
RRT 3.1-3.2 (21 Month): 0.75%
RRT 3.41 (21 Month): 0.07%
RRT 3.44 (21 Month): 0.05%
RRT 3.58 (21 Month): 1.12%
RRT 4.95 (21 Month): 0.89%
Total Related Substances (21 Month): 6%
pH (21 Month): 7.4
(DACH) Pt-diaquo (~RRT 0.3) (24 Month): 0.11%
(DACH) Pt-monoaquo (~RRT 0.7) (24 Month): 0.85%
Assay (Potency) (24 Month): 94.6%
PT-112 Dimer (~RRT 4.0) (24 Month): 0.28%
RRT 0.42 (24 Month): 0.18%
RRT 0.46 (24 Month): 0.12%
RRT 0.50 (24 Month): 0.70%
RRT 0.56 (24 Month): 0.17%
RRT 0.68 (24 Month): 0.13%
RRT 0.86 (24 Month): 0.05%
RRT 3.1-3.2 (24 Month): 0.72%
RRT 3.29 (24 Month): 0.06%
RRT 3.44 (24 Month): 0.05%
RRT 3.58 (24 Month): 1.07%
RRT 4.95 (24 Month): 1.12%
Total Related Substances (24 Month): 6%
pH (24 Month): 7.4
(DACH) Pt-diaquo (~RRT 0.3) (Initial): 0.16%
(DACH) Pt-monoaquo (~RRT 0.7) (Initial): 0.84%
Assay (Potency) (Initial): 98.1%
PT-112 Dimer (~RRT 4.0) (Initial): 0.34%
RRT 0.50 (Initial): 0.06%
RRT 0.56 (Initial): 0.08%
RRT 0.68 (Initial): 0.09%
RRT 3.1-3.2 (Initial): 0.11%
Total Related Substances (Initial): 2%
pH (Initial): 7.4
Particulate Matter (Light Obscuration) (Initial, first value): 30 particles particles per container and 30 particles per particles per container
Particulate Matter (Light Obscuration) (Initial, second value): 11 particles particles per container and 11 particles per particles per container
